What was measured:
[1] = system: FASN activity in HepG2 cells; experiment: [3H] glucose and acetate incorporation into lipids in HepG2 cells; format: cell-based; settings: FIG. 2D, cell line not stated
Method: To specifically identify inhibitors of FASN targeting its nucleotide binding pockets Cibacron blue Sepharose was utilized. This medium has been used previously to purify NAD and NADP binding proteins from crude tissues extracts (Miyaguchi et al., 2011; Muratsubaki et al., 1994). FASN enriched extract from lactating pig mammary gland was bound to the resin and labeled with cysteine reactive fluorescein. […] Next, the molecules were tested for their ability to inhibit FASN activity in a HepG2 cell based assay that measured the incorporation of ^3H glucose into lipids (FIG. 1B and FIG. 9).
Incorporation of radiolabeled glucose or acetate in total lipids was measured according to published methods (Haystead and Hardie, 1986). HepG2 cells (80% confluent in 12 wells plates) were starved overnight in MEM Alpha, the medium was then changed with DMEM medium containing 0.1 g/L glucose 10% FBS and 5 μM insulin and 1 μCi 3-[^3H] D-glucose or 1 μCi [^3H]-acetate in addition to different concentrations of each compound. After incubation for 1 hour at 37° C., 5% CO2, the cells were washed with ice cold PBS and detached by treating with 100 μl trypsin for 10 min then 1 ml of ice cold PBS was added. The cells suspension was then sonicated for 3 times in 30 seconds intervals and kept on ice. From each well 1 ml of cell lysate was added to a 4 ml scintillation vial and 2 ml of MicroScint-E was added. The vials were mixed thoroughly then centrifuged for 30 min at 3000 rpm and the ^3H radioactivity was measured by liquid scintillation counting.

[2] = system: BT474 cells; experiment: Caspase 3/7 activity assay; format: cell-based
Method: (§1) The assay was performed using a similar protocol to the one described by Fritz et al (Fritz et al., 2001). Cells were seeded at a density of 10,000 cells/well and treated with different concentrations of HS-106 or C75. After 24 hours, to each well, 50 μl of Caspase assay/lysis buffer (50 mM HEPES pH 7.5, 100 mM KCl, 5 mM EDTA, 10 mM MgC12, 10 mM CHAPS, 20% Sucrose, 10 mM DTT, 10 μM of (Z-DEVD)2-Rh110 (Santa Cruz Biotech) and complete protease inhibitor (Roche))was added. After 6 hours of incubation at 37° C., fluorescence was measured at Ex/Em: 485/535 nm.

[3] = system: MMTV-Neu model of HER2+ breast cancer; experiment: Efficacy in MMTV-Neu model of HER2+ breast cancer; format: in vivo, mice; settings: HS-106 30 pmol/kg BIW, Carboplatin 143 pmol/kg weekly, 21 days
[4] = system: HIV-1; format: cell-based; settings: supernatants on fresh TZM-bl indicator cells
Method: (A) TZM-bl cells were transfected with pNL4-3 provirus plasmid for 48 h in the presence or absence of 10 μM Fasnall or C75 or DMSO (0.01%). Intracellular expression of HIV-1 proteins was monitored by HIVIG-western blot, and β-actin was used as loading control. (B) Supernatant associated virion production was monitored using a p24 ELISA. (C) 48 hours post-transfection, cell culture supernatants were removed and incubated with fresh TZM-bl (indicator) cells for an additional 48 hrs. Values expressed as the mean±standard deviation, and are representative of three independent experiments. p-values were generated with student's t-test. Molecular weight markers (kD) indicated in right margin.
To test further the hypothesis that HIV-1 replication requires FASN activity during the late stages of viral replication, TZM-bl or SupT1 (data not shown) cells were transfected with a HIV-1 provirus (pNL43) in the presence or absence of Fasnall or C75. […] Thus, FASN inhibition reduces nascent HIV-1 virion production without reducing HIV-1 protein synthesis.

[5] = system: SKBR3 cells; experiment: Caspase 3/7 activity assay; format: cell-based; settings: SKBR3, 24 hours
Method: as §1

Structure (SMILES): Cc1sc2ncnc(N[C@H]3CCN(Cc4ccccc4)C3)c2c1C [HS-80, (S)—N-(1-benzylpyrrolidin-3-yl)-5,6-dimethylthieno[2,3-d]pyrimidin-4-amine]
- inhibition of tritiated acetate incorporation into lipids [1]: inhibit the incorporation of tritiated acetate into lipids

Structure (SMILES): Cc1sc2ncnc(N[C@@H]3CCN(Cc4ccccc4)C3)c2c1C [HS-79, (R)—N-(1-benzylpyrrolidin-3-yl)-5,6-dimethylthieno[2,3-d]pyrimidin-4-amine]
- inhibition of tritiated acetate incorporation into lipids [1]: inhibit the incorporation of tritiated acetate into lipids

Structure (SMILES): CCCCCCC(=O)CCCCCC/C=C/C[C@@H](O)[C@H](O)[C@@](N)(CO)C(=O)O [Myriocin]
- rescue from Fasnall induced apoptosis by ceramide synthesis inhibitor ([2]; BT474, 10 μM pretreatment, 24 hours): modestly rescue the cells

Structure (SMILES): N.N.O=C([O-])C1(C(=O)[O-])CCC1.[Pt+2] [Carboplatin, reference compound]
- tumors with objective response of stable disease or better [3]: 25%

Structure (SMILES): C=C1C(=O)OC(CCCCCCCC)C1C(=O)O (centres unmarked) [C75, reference compound]
- number of infectious HIV-1 particles [4]: similarly reduced the number of infectious HIV-1 particles
- caspase activity relative to MCF10A cells [5]: 2 fold
- caspase activity relative to MCF10A cells ([2]; BT474, 24 hours): 10 fold

Structure (SMILES): CCCCCCCCCCCCCCOc1ccc(C(=O)O)o1 [TOFA]
- reversal of HS-106 induced caspase 3/7 activity by pretreatment ([2]; BT474, 15 μM TOFA pretreatment): completely reverse the effect of HS-106

Reference: patent US11679111B2, “Fatty acid synthase inhibitors” (priority 2016, dated 2023)
